The values below come from patent publication US7799775B2, “Pyrimidine derivatives” (ASKA Pharmaceutical Co., Ltd., priority 2004, dated 2010).

For one assay, the target named is T1, human 5-HT1A receptor (Homo sapiens, UniProt P08908).
T1 construct: purchased Packard Bioscience; host or cells: CHO cells (membrane preparation)
T1 sequence (P08908 1-422): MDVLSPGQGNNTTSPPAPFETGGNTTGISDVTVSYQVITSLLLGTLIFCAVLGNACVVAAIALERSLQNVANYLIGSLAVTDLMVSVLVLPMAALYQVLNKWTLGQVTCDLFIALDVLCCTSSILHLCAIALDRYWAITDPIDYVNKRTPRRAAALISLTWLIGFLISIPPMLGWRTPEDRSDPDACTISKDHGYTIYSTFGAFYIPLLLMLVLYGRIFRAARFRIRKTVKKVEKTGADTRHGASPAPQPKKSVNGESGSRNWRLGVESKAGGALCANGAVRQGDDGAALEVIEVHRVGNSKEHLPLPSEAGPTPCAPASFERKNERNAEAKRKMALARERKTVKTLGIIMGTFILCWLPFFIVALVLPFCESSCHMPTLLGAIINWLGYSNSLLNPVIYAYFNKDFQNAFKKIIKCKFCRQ
As to the kind of experiment: Affinity measurement of the compounds to human 5-HT1A receptor (in vitro), [3H]8-OH-DPAT binding. As to conditions: test compound 100 nmols/L, [3H]8-OH-DPAT 0.25 nmols/L, CHO cell membrane expressing human 5-HT1A receptor; for inhibition at 0.1 µM: read-out: Percent Inhibition (%) on Each Receptor's Binding at 10^−7M, 5-HT1A. The procedure:
(1) Affinity Measurement of the Compounds to Human 5-HT1A Receptor (in Vitro)
CHO cell membrane sample in which human 5-HT1A receptor was expressed (purchased from Packard Bioscience) 0.25 mL (about 50 units) was added to 24.75 mL of incubation buffer solution A (an aqueous solution of a mixture of 50 mmols/L of Tris-hydrochloric acid, 10 mmols/L of magnesium sulfate, 0.5 mmols/L of EDTA and 0.1% ascorbic acid, whose pH was adjusted to 7.4 at 27° C. with 1N-aqueous sodium hydroxide solution), and labeled as membrane sample suspension A. Separately, each test compound was made into 270 μmols/L DMSO solution and diluted to a prescribed concentration with the incubation buffer solution A, to provide a compound solution.
A piece of polypropylene tube was charged with 20 μL of [^3H]8-OH-DPAT (8-hydroxy-2-(di-n-propylamino)tetralin; purchased from Daiichi Pure Chemicals Co., Ltd.) (The concentration of the [^3H]8-OH-DPAT had been advancedly adjusted to render its concentration in the reaction mixture to 0.25 nmols/L) and 20 μL of one of the compound solutions. Further 500 μL of the membrane sample suspension A was added into the tube, followed by 60 minutes' incubation at 27° C. The reaction was terminated by rapid filtration of the reaction mixture through GF/C filter which had been advancedly immersed in a solution formed by adding to the incubation buffer solution A polyethyleneimine to a concentration of 0.3%, using Brandel cell harvester. Then the filter was washed with about 5 mL of 50 mmols/L of Tris-hydrochloric acid which had been cooled to 4° C. The filter was once again washed after similar operation.
Residual radioactivity on the filter was measured with liquid scintillation counter (Aloka Co., LSC-5100). Percent inhibition (%) of each test compound to binding of [^3H]8-OH-DPAT to 5-HT1A receptor at a concentration of 0.25 nmols/L, i.e., affinity of each test compound to 5-HT1A receptor, can be calculated according to the following expression. The ratio of non-specific binding was calculated by measuring the radioactivity in case of using 8-OH-DPAT at a concentration of 10 μmols/L, with which value the measured value of each test compound was compensated.
(§1) Affinity of each test compound to 5-HT1A receptor and 5-HT3 receptor at a concentration of 100 nmols/L were as shown in the following Tables A-1 and A-2. BRL-43694 and tropisetron (ICS 205-930), which were used in measuring affinity of those compounds to 5-HT3 receptor, have the following structures: […]

Another assay addresses T2, human 5-HT3 receptor (Homo sapiens, UniProt P46098).
T2 construct: purchased BIOLINKS K.K; host or cells: HEK-293 cells (membrane preparation)
T2 sequence (P46098 24-478): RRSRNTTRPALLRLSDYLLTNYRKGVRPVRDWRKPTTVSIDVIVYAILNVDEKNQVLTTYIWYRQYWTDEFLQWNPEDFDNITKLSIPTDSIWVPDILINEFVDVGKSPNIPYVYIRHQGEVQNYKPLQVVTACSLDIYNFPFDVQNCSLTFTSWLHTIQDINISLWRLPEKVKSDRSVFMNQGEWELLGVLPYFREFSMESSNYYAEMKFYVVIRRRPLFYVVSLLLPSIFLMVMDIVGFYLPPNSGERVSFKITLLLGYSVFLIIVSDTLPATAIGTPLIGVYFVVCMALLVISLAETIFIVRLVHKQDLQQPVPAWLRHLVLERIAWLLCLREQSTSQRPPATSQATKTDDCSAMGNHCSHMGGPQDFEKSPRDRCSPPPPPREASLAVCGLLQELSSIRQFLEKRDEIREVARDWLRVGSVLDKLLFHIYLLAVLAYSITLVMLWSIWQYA
The assay is described as follows: Measurement of affinity to human 5-HT3 receptor (in vitro), [3H]BRL-43694 binding. As to conditions: test compound 100 nmols/L, [3H]BRL-43694 0.5 nmols/L, HEK-293 cell membrane expressing human 5-HT3 receptor; for inhibition at 0.1 µM: read-out: Percent Inhibition (%) on Each Receptor's Binding at 10^−7M, 5-HT3. As for the experimental part: (2) Measurement of Affinity of Each Test Compound to Human 5-HT3 Receptor (in Vitro):
HEK-293 cell membrane sample in which human 5-HT3 receptor was expressed (purchased from BIOLINKS K.K.) 0.05 mL (about 50 microassay) was added to 24.95 mL of incubation buffer solution B (an aqueous solution of a mixture of 50 mmols/L of Tris-hydrochloric acid, 5 mmols/L of magnesium chloride and 1 mmol/L of EDTA, whose pH was adjusted to 7.5 at 25° C. with 1N-aqueous sodium hydroxide solution) and homogenized, to provide a membrane sample suspension B. Separately, each test compound was made into 270 μmols/L of DMSO solution and diluted to a prescribed concentration with the incubation buffer solution B to provide a compound solution.
A piece of polypropylene tube was charged with 20 μL of [^3H]BRL-43694 (purchased from Daiichi Pure Chemicals Co., Ltd.) (The concentration of [^3H]BRL-43694 had been advancedly adjusted to render its concentration in the reaction mixture to 0.5 nmols/L.) and 20 μL of one of the compound solutions. Further 500 μL of the membrane sample suspension B was added into the tube, followed by 60 minutes' incubation at 25° C. The reaction was terminated by rapid filtration of the reaction mixture through GF/B filter which had been advancedly immersed in a solution formed by adding to the incubation buffer solution B polyethyleneimine to a concentration of 0.5%, using Brandel cell harvester. Then the filter was washed with about 5 mL of 50 mmols/L of Tris-hydrochloric acid which had been cooled to 4° C. The filter was once again washed after similar operation.
Residual radioactivity on the filter was measured with liquid scintillation counter (ALOKA CO., LTD. LSC-5100). Percent inhibition (%) of each test compound to binding of [^3H]BRL-43694 to 5-HT3 receptor at a concentration of 0.5 nmols/L, i.e., affinity of each test compound to 5-HT3 receptor, can be calculated according to the following expression. The ratio of non-specific binding was calculated by measuring the radioactivity in case of using tropisetron: (ICS 205-930) at a concentration of 10 μmols/L, with which value the measured value of each test compound was compensated.
as §1

SMILES strings stand for the structures.

For the molecule `COc1cc(N2CCN(CCCCc3nc4ccccc4c(=O)n3N)CC2)nc2ccccc12` [Example 4-22, 3-amino-2-[4-(4-methoxyquinolin-2-yl)piperazin-1-yl]butyl-3H-quinazolin-4-one], at human 5-HT1A receptor, the “Percent Inhibition (%) on Each Receptor's Binding at 10^−7M, 5-HT1A” value worked out at 58.2%. Further, on human 5-HT3 receptor, the “Percent Inhibition (%) on Each Receptor's Binding at 10^−7M, 5-HT3” value was 93.9%.
As usually defined, the inhibition is how much of the control response was suppressed. `CN1CCN(c2nccc3c(Cl)cccc23)CC1` [Production Example 61, 5-chloro-1-(4-methylpiperazin-1-yl)isoquinoline]: the inhibition at 0.1 µM on human 5-HT1A receptor was 25.3%; at human 5-HT3 receptor, 94.1%.
Take `Cn1c(CCCCN2CCN(c3nc4ccccc4s3)CC2)nc2c(c1=O)CCCC2` [Example 7-9, 2-[4-(4-benzothiazol-2-ylpiperazin-1-yl)butyl]-3-methyl-5,6,7,8-tetrahydro-3H-quinazolin-4-one]: the inhibition at 0.1 µM on human 5-HT1A receptor came out at 91%; at human 5-HT3 receptor, 32%.
Take `CCC1CCc2nc(CCCCN3CCN(c4ccc5ccccc5n4)CC3)n(N)c(=O)c2C1` (stereo not shown) [Example 4-61, 3-amino-6-ethyl-2-[4-(4-quinolin-2-ylpiperazin-1-yl)butyl]-5,6,7,8-tetrahydro-3H-quinazolin-4-one]: the inhibition at 0.1 µM on human 5-HT1A receptor came out at 96.8%; at human 5-HT3 receptor, 88.7%.
On to `Cc1cc2c(N3CCN4CCC[C@@H]4C3)nccc2o1` [Production Example 115, 4-((8aR)-octahydropyrrolo[1,2-a]pyrazin-2-yl)-2-methylfuro[3,2-c]pyridine], for which the inhibition at 0.1 µM on human 5-HT1A receptor turned out to be 82%; on human 5-HT3 receptor it was 74.3%.
As for `CCN1CCN(c2nccc3ccccc23)CC1` [Production Example 37, 1-(4-ethylpiperazin-1-yl)isoquinoline], the values for the inhibition at 0.1 µM on human 5-HT1A receptor and at human 5-HT3 receptor were 57.3% and 70.2%, respectively.
For the molecule `Nn1c(SCCCN2CCN(c3ccc4ccccc4n3)CC2)nc2sc3c(c2c1=O)CCCC3` [Example 1-4, 3-amino-2-[3-(4-quinolin-2-ylpiperazin-1-yl)propylthio]-5,6,7,8-tetrahydro-3H-benzo[4,5]thieno[2,3-d]pyrimidin-4-one], the inhibition at 0.1 µM at human 5-HT1A receptor was determined as 96.6%; at human 5-HT3 receptor it was 93.2%.
Turning to `COc1ccc2c(N3CCNCC3)nccc2c1` [Production Example 40, 6-methoxy-1-piperazin-1-ylisoquinoline], the inhibition at 0.1 µM turned out to be 42.9% on human 5-HT1A receptor and 99.3% at human 5-HT3 receptor.
In the case of `Cn1c(CCCCN2CCN(c3ccc4ccccc4n3)CC2)nc2cccc(Cl)c2c1=O` [Example 7-18, 5-chloro-3-methyl-2-[4-(4-quinolin-2-ylpiperazin-1-yl)butyl]-3H-quinazolin-4-one], the inhibition at 0.1 µM at human 5-HT1A receptor is 93.1%; on human 5-HT3 receptor it was 68.8%.
As to `Cn1c(SCCCN2CCN(c3ccc4ccccc4n3)CC2)nc2ccccc2c1=O` [Example 7-28], the values for the inhibition at 0.1 µM at human 5-HT1A receptor and at human 5-HT3 receptor were 74.7% and 87.3%, respectively.
As for `Cn1c(CCCN2CCN(c3ccc4ccccc4n3)CC2)nc2c(c1=O)CCCC2` [Example 7-5, 3-methyl-2-[3-(4-quinolin-2-ylpiperazin-1-yl)propyl]-5,6,7,8-tetrahydro-3H-quinazolin-4-one], the figures for the inhibition at 0.1 µM on human 5-HT1A receptor and at human 5-HT3 receptor were 53% and 6.3%, respectively.
For `Cc1ccc2nc(CCCCN3CCN(c4ccc5ccccc5n4)CC3)n(N)c(=O)c2c1` [Example 4-20, 3-amino-6-methyl-2-[4-(4-quinolin-2-ylpiperazin-1-yl)butyl]-3H-quinazolin-4-one], the inhibition at 0.1 µM on human 5-HT1A receptor stood at 94.3%; on human 5-HT3 receptor, 87.8%.
Take `CC1CCCc2c1nc(CCCCN1CCN(c3ccc4ccccc4n3)CC1)n(N)c2=O` (stereo not shown) [Example 4-36, 3-amino-8-methyl-2-[4-(4-quinolin-2-ylpiperazin-1-yl)butyl]-5,6,7,8-tetrahydro-3H-quinazolin-4-one]: the figures for the inhibition at 0.1 µM on human 5-HT1A receptor and at human 5-HT3 receptor were 90.4% and 87.7%, respectively.
With `Cn1c(SCCCN2CCN(c3ccc4ccccc4n3)CC2)nc2c(c1=O)CCCC2` [Example 7-27], the values for the inhibition at 0.1 µM on human 5-HT1A receptor and at human 5-HT3 receptor were 87% and 90.2%, respectively.
For `CCN1CCN(c2nccc3ccsc23)CC1` [Production Example 17, 7-(4-ethylpiperazin-1-yl)-thieno[2,3-c]pyridine], in that order: 83.6% and 82.9%.
For the molecule `Cc1sc2nc(CCCCN3CCN(c4ccc5ccccc5n4)CC3)n(N)c(=O)c2c1C` [Example 4-35, 3-amino-5,6-dimethyl-2-[4-(4-quinolin-2-ylpiperazin-1-yl)butyl]-3H-thieno[2,3-d]pyrimidin-4-one], the inhibition at 0.1 µM amounted to 98% on human 5-HT1A receptor and 96.9% on human 5-HT3 receptor.
For the molecule `Cn1c(NCCCN2CCN(c3ccc4ccccc4n3)CC2)nc2ccccc2c1=O` [Example 7-30, 3-methyl-2-[3-(4-quinolin-2-ylpiperazin-1-yl)propylamine]-3H-quinazolin-4-one], the inhibition at 0.1 µM at human 5-HT1A receptor is 73.5%; at human 5-HT3 receptor, 92.4%.
